The values below come from patent US6319952A, “Compositions and methods for reversibly increasing permeability of biomembranes” (D-Pharm Ltd., priority 1997, dated 2001).

Each structure is given as a SMILES string.

Data set [1] has as its system bovine brain capillary endothelial cells in co-culture with astrocytes. Kind of data set: Transcellular permeability (albumin-FITC clearance), in vitro coculture model of the BBB. The format is cell-based. The note with it: 0.24 mg/ml. Here is the method:
1 hr incubation with the test material and five different concentrations: 0.04; 0.08; 0.16; 0.24; 0.32 mg/ml corresponding to 0.125; 0.25; 0.5; 0.75; 1×10^-3 M, were chosen for this experiment.
Stock solution of DP-BFA was added directly to the coculture medium (upper compartment) in order to obtain a dilution of 1:40.
Permeability studies was carried out on the monolayer of endothelial cells using a transcellular tracer: albumin-FITC (fluorescein isothiocyanate), MW=66500. There is no albumin receptor on endothelial cells. Albumin crossed the monolayer by a non-specific transport.
To obtain a concentration-dependent transport parameter, the clearance principle was used like sucrose or inulin (see paragraph 2.2.).
Albumin-FITC was used on endothelial cells at the concentration of 100 μg/ml in Ringer-Hepes 0.4% albumin.
The fluorescence of each sample was determined at λexcitation of 495 and λemission of 525 using a fluorescence spectrophotometer F-2000 (Hitachi).
In that case, the results are presented as clearance (μl) in function of time (min) and clearance at 180 minutes for each condition.

Data set [2] has the same test system. In words: Reversibility kinetic of DP-BFA effect on the paracellular permeability of the BBB in vitro. It is filed as cell-based. As for the experimental part:
Endothelial cells are cocultured 12 days, and on the twelfth day DP-BFA was added to the cultures for one hour. The cultures were then washed to remove the test material and cultured for a further period of 3, 6 or 18 hours without DP-BFA.
(§1) Permeability studies were carried out on the monolayer of endothelial cells, using two paracellular tracers: inulin-^3 H and sucrose-^14C.

A further data set deals with mice. The note with it: mouse, in vivo.
The subject of data set [3] is bovine brain capillary endothelial cells in co-culture with astrocytes. Kind of data set: Reversibility of DP-BFA effect on the paracellular permeability of the BBB in vitro. It is filed as cell-based. The note with it: for permeability of the monolayer for sucrose and inulin: 1 hour incubation. As for the experimental part:
In regard with the previous results, 0.16 mg/ml (paracellular opening after 1 hr) and 0.32 mg/ml (paracellular and transcellular openings after 1 hr) were chosen to study the reversibility of the effect of DP-BFA.
Endothelial cells are cocultured 12 days, on the twelfth culture day DP-BFA was added to the cultures for 1 hour, and then removed by replacement of the culture medium. The cultures then were maintained for a further 24 hours without DP-BFA, and subsequently assayed for paracellular permeability.
as §1

The mark [4] stands for this setting: 0.16 mg/ml 1 hr, then 3 hrs fresh medium.
Setting [5] is: 0.16 mg/ml 1 hr, then 6 hrs fresh medium.
[6] abbreviates: 0.16 mg/ml 1 hr, then 18 hrs fresh medium.

Consider `CCCCCCCCCCCCCCC(CCC)C(=O)O` (centres unmarked) [M 3/14, 2-propylhexadecanoic acid], for which the non-specific transcellular transport entry in data set [1] (1 hr incubation) is on record as “increase of non-specific transcellular transport”. Besides, the activation at 240 µg/mL in data set [1] (Bos taurus, 1 hour incubation, read-out: increase in permeability of the monolayer for albumin (clearance at 180 minutes)) amounted to 268%. Besides, the “decrease in paracellular permeability for inulin (clearance at 45 minutes)” value in data set [2] (setting [4]) was 58%; in data set [2] (setting [5]) it was 58%; in data set [2] (setting [6]) it was 76%. Moreover, the “decrease in paracellular permeability for sucrose (clearance at 45 minutes)” value was 56% in data set [2] (setting [4]), 57% in data set [2] (setting [5]) and 72% in data set [2] (setting [6]). Moreover, the “reversibility of DP-BFA effect” value in data set [2] (0.16 mg/ml 1 hr, after 3, 6 and 18 hrs) is “incomplete reversibility”; in data set [3] (higher concentrations) it was “Partial reversibility”. The “paracellular transport after removal” value in data set [2] (after 3 hours, preliminary kinetic study) is listed as “a decrease in the paracellular transport could be observed”. Besides, the “brain edema or general edema” value in the data set on mice is “no brain edema or general edema was observed”. Besides, the “reversibility of paracellular permeability (clearance at 45 minutes)” value in data set [3] (0.16 mg/ml 1 hr, then 24 hrs without DP-BFA) is listed as “complete reversibility”. In addition, the “permeability of the monolayer for sucrose and inulin” value in data set [3] (0.16 mg/ml) and in data set [3] (0.32 mg/ml) was “increase in the permeability” each time. Also, the “decrease of paracellular permeability (clearance at 45 minutes)” value in data set [3] (0.32 mg/ml 1 hr, then 24 hrs without DP-BFA) was determined as 50%. Moreover, the “paracellular breakdown (opening of the tight junctions)” value in data set [3] (0.32 mg/ml, 1 hr) is recorded as “paracellular breakdown (opening of the tight junctions)”.
